Data as given in PubChem BioAssay AID1745844 (Carcinogenic Potency Database (CPDB), 2022).

Test system: rodent lifetime carcinogenesis bioassay, tumor incidence TD50
Test: carcinogenic potency in animals, long-term in vivo studies, CPDB compilation (AID 1745844)

## CNNCc1ccc(C(=O)NC(C)C)cc1
monkey, strain Cynomolgus [Macaca fascicularis], both sexes, several routes, site: all sites, lesion: acute nonlymphocytic leukemia, dosed 825 weeks, study length 980 weeks
  TD50: 14.8 mg/kg/day
monkey, strain Cynomolgus [Macaca fascicularis], both sexes, several routes, site: all sites, lesion: lymphocytic lymphoma, dosed 825 weeks, study length 980 weeks
  TD50: 21.1 mg/kg/day
monkey, strain Cynomolgus [Macaca fascicularis], both sexes, several routes, site: any site (literature study), lesion: malignant tumor, dosed 825 weeks, study length 980 weeks
  TD50: 1.73 mg/kg/day
monkey, strain Cynomolgus [Macaca fascicularis], both sexes, several routes, site: bone, lesion: osteosarcoma, dosed 825 weeks, study length 980 weeks
  TD50: 5.91 mg/kg/day
monkey, strain Cynomolgus [Macaca fascicularis], both sexes, several routes, site: brain, lesion: astrocytoma, dosed 825 weeks, study length 980 weeks
  TD50: 6.19 mg/kg/day
monkey, strain Cynomolgus [Macaca fascicularis], both sexes, several routes, site: kidney, lesion: hemangiosarcoma, dosed 825 weeks, study length 980 weeks
  TD50: 23.5 mg/kg/day
monkey, strain Rhesus [Macaca mulatta], both sexes, several routes, site: all sites, lesion: acute nonlymphocytic leukemia, dosed 825 weeks, study length 1182 weeks
  TD50: 4.21 mg/kg/day
monkey, strain Rhesus [Macaca mulatta], both sexes, several routes, site: any site (literature study), lesion: malignant tumor, dosed 825 weeks, study length 1182 weeks
  TD50: 1.9 mg/kg/day
monkey, strain Rhesus [Macaca mulatta], both sexes, several routes, site: cecum, lesion: adenocarcinoma, dosed 825 weeks, study length 1182 weeks
  TD50: 5.16 mg/kg/day
monkey, strain Rhesus [Macaca mulatta], both sexes, several routes, site: humerus, lesion: osteosarcoma, dosed 825 weeks, study length 1182 weeks
  TD50: 32.7 mg/kg/day
monkey, strain Rhesus [Macaca mulatta], both sexes, several routes, site: kidney, lesion: hemangiosarcoma, dosed 825 weeks, study length 1182 weeks
  TD50: 39.6 mg/kg/day
mouse, strain B6C3F1, females, i.p., site: all sites + brain + lung + uterus, lesion: leukemia + lymphoma + olfactory neuroblastoma + alveolar/bronchiolar adenoma + adenocarcinoma, NOS, dosed 52 weeks, study length 85 weeks
  TD50: 0.194 mg/kg/day
mouse, strain B6C3F1, females, i.p., site: all sites, lesion: leukemia + lymphoma, dosed 52 weeks, study length 80 weeks
  TD50: 0.69 mg/kg/day
mouse, strain B6C3F1, females, i.p., site: all sites, lesion: leukemia + lymphoma, dosed 52 weeks, study length 85 weeks
  TD50: 0.758 mg/kg/day
mouse, strain B6C3F1, females, i.p., site: all sites, lesion: lymphoma, dosed 52 weeks, study length 80 weeks
  TD50: 0.855 mg/kg/day
mouse, strain B6C3F1, females, i.p., site: all sites, lesion: lymphoma, dosed 52 weeks, study length 85 weeks
  TD50: 0.908 mg/kg/day
mouse, strain B6C3F1, females, i.p., site: any site (literature study), lesion: several types, types named in the paper, dosed 52 weeks, study length 85 weeks
  TD50: 0.193 mg/kg/day
mouse, strain B6C3F1, females, i.p., site: brain, lesion: olfactory neuroblastoma, dosed 52 weeks, study length 80 weeks
  TD50: 5.62 mg/kg/day
mouse, strain B6C3F1, females, i.p., site: brain, lesion: olfactory neuroblastoma, dosed 52 weeks, study length 85 weeks
  TD50: 6.34 mg/kg/day
mouse, strain B6C3F1, females, i.p., site: lung, lesion: alveolar/bronchiolar adenoma + alveolar/bronchiolar carcinoma, dosed 52 weeks, study length 85 weeks
  TD50: 3.83 mg/kg/day
mouse, strain B6C3F1, females, i.p., site: lung, lesion: alveolar/bronchiolar adenoma, dosed 52 weeks, study length 80 weeks
  TD50: 3.39 mg/kg/day
mouse, strain B6C3F1, females, i.p., site: lung, lesion: alveolar/bronchiolar adenoma, dosed 52 weeks, study length 85 weeks
  TD50: 3.83 mg/kg/day
mouse, strain B6C3F1, females, i.p., site: uterus, lesion: adenocarcinoma, NOS, dosed 52 weeks, study length 80 weeks
  TD50: 0.411 mg/kg/day
mouse, strain B6C3F1, females, i.p., site: uterus, lesion: adenocarcinoma, NOS, dosed 52 weeks, study length 85 weeks
  TD50: 0.253 mg/kg/day
mouse, strain B6C3F1, males, i.p., site: all sites + brain + lung, lesion: leukemia + lymphoma + olfactory neuroblastoma + undifferentiated carcinoma + alveolar/bronchiolar adenoma + alveolar/bronchiolar c, dosed 52 weeks, study length 85 weeks
  TD50: 0.511 mg/kg/day
mouse, strain B6C3F1, males, i.p., site: all sites, lesion: leukemia + lymphoma, dosed 52 weeks, study length 85 weeks
  TD50: 3.34 mg/kg/day
mouse, strain B6C3F1, males, i.p., site: any site (literature study), lesion: several types, types named in the paper, dosed 52 weeks, study length 85 weeks
  TD50: 0.464 mg/kg/day
mouse, strain B6C3F1, males, i.p., site: brain, lesion: olfactory neuroblastoma + undifferentiated carcinoma, dosed 52 weeks, study length 85 weeks
  TD50: 4.51 mg/kg/day
mouse, strain B6C3F1, males, i.p., site: brain, lesion: olfactory neuroblastoma, dosed 52 weeks, study length 85 weeks
  TD50: 5.19 mg/kg/day
mouse, strain B6C3F1, males, i.p., site: liver, lesion: hepatocellular adenoma + hepatocellular carcinoma + neoplastic nodule, dosed 52 weeks, study length 85 weeks
  TD50: 3.28 mg/kg/day
mouse, strain B6C3F1, males, i.p., site: lung, lesion: alveolar/bronchiolar adenoma + alveolar/bronchiolar carcinoma, dosed 52 weeks, study length 85 weeks
  TD50: 0.623 mg/kg/day
mouse, strain B6C3F1, males, i.p., site: lung, lesion: alveolar/bronchiolar adenoma, dosed 52 weeks, study length 85 weeks
  TD50: 0.721 mg/kg/day
mouse, strain Swiss, females, i.p., site: all sites, lesion: leukemia, dosed 26 weeks, study length 76 weeks
  TD50: 3.72 mg/kg/day
mouse, strain Swiss, females, i.p., site: all sites, lesion: lymphosarcoma, dosed 26 weeks, study length 76 weeks
  TD50: 6.99 mg/kg/day
mouse, strain Swiss, females, i.p., site: any site (literature study), lesion: benign tumor, dosed 26 weeks, study length 76 weeks
  TD50: 27.8 mg/kg/day
mouse, strain Swiss, females, i.p., site: any site (literature study), lesion: malignant tumor, dosed 26 weeks, study length 76 weeks
  TD50: 0.391 mg/kg/day
mouse, strain Swiss, females, i.p., site: any site (literature study), lesion: several types, types named in the paper, dosed 26 weeks, study length 76 weeks
  TD50: 0.244 mg/kg/day
mouse, strain Swiss, females, i.p., site: lung, lesion: several types, types named in the paper, dosed 26 weeks, study length 76 weeks
  TD50: 1.05 mg/kg/day
mouse, strain Swiss, females, i.p., site: uterus, lesion: carcinoma, dosed 26 weeks, study length 76 weeks
  TD50: 5.75 mg/kg/day
mouse, strain Swiss, females, i.p., site: uterus, lesion: sarcoma, dosed 26 weeks, study length 76 weeks
  TD50: 6.11 mg/kg/day
mouse, strain Swiss, males, i.p., site: any site (literature study), lesion: benign tumor, dosed 26 weeks, study length 78 weeks
  TD50: 9.84 mg/kg/day
mouse, strain Swiss, males, i.p., site: any site (literature study), lesion: malignant tumor, dosed 26 weeks, study length 78 weeks
  TD50: 1.74 mg/kg/day
mouse, strain Swiss, males, i.p., site: any site (literature study), lesion: several types, types named in the paper, dosed 26 weeks, study length 78 weeks
  TD50: 1.15 mg/kg/day
mouse, strain Swiss, males, i.p., site: lung, lesion: several types, types named in the paper, dosed 26 weeks, study length 78 weeks
  TD50: 1.53 mg/kg/day
rat, strain BR 46, males, i.v., site: any site (literature study), lesion: malignant tumor, dosed 52 weeks, study length 104 weeks
  TD50: 3.93 mg/kg/day
rat, strain BR 46, males, i.v., site: any site (literature study), lesion: several types, types named in the paper, dosed 52 weeks, study length 104 weeks
  TD50: 4.01 mg/kg/day
rat, strain Sprague-Dawley, females, i.p., site: all sites + brain + cerebrum + mammary gland, lesion: lymphoma + olfactory neuroblastoma + mucinous adenocarcinoma + adenocarcinoma, NOS + adenoma, NOS, dosed 26 weeks, study length 86 weeks
  TD50: 0.337 mg/kg/day
rat, strain Sprague-Dawley, females, i.p., site: all sites, lesion: lymphoma, dosed 26 weeks, study length 80 weeks
  TD50: 4.48 mg/kg/day
rat, strain Sprague-Dawley, females, i.p., site: all sites, lesion: lymphoma, dosed 26 weeks, study length 86 weeks
  TD50: 5.18 mg/kg/day
rat, strain Sprague-Dawley, females, i.p., site: any site (literature study), lesion: several types, types named in the paper, dosed 26 weeks, study length 86 weeks
  TD50: 0.329 mg/kg/day
rat, strain Sprague-Dawley, females, i.p., site: brain + cerebrum, lesion: olfactory neuroblastoma + mucinous adenocarcinoma, dosed 26 weeks, study length 80 weeks
  TD50: 0.36 mg/kg/day
rat, strain Sprague-Dawley, females, i.p., site: brain + cerebrum, lesion: olfactory neuroblastoma + mucinous adenocarcinoma, dosed 26 weeks, study length 86 weeks
  TD50: 0.416 mg/kg/day
rat, strain Sprague-Dawley, females, i.p., site: brain, lesion: olfactory neuroblastoma, dosed 26 weeks, study length 80 weeks
  TD50: 0.361 mg/kg/day
rat, strain Sprague-Dawley, females, i.p., site: brain, lesion: olfactory neuroblastoma, dosed 26 weeks, study length 86 weeks
  TD50: 0.418 mg/kg/day
rat, strain Sprague-Dawley, females, i.p., site: mammary gland, lesion: adenocarcinoma, NOS + adenoma, NOS, dosed 26 weeks, study length 80 weeks
  TD50: 0.396 mg/kg/day
rat, strain Sprague-Dawley, females, i.p., site: mammary gland, lesion: adenocarcinoma, NOS + adenoma, NOS, dosed 26 weeks, study length 86 weeks
  TD50: 0.458 mg/kg/day
rat, strain Sprague-Dawley, females, i.p., site: mammary gland, lesion: adenocarcinoma, NOS, dosed 26 weeks, study length 80 weeks
  TD50: 0.397 mg/kg/day
rat, strain Sprague-Dawley, females, i.p., site: mammary gland, lesion: adenocarcinoma, NOS, dosed 26 weeks, study length 86 weeks
  TD50: 0.459 mg/kg/day
rat, strain Sprague-Dawley, males, i.p., site: all sites + brain + mammary gland + olfactory bulb, lesion: leukemia + lymphoma + carcinoma, NOS + olfactory neuroblastoma + adenocarcinoma, NOS + adenoma, NOS, dosed 26 weeks, study length 61 weeks
  TD50: 0.284 mg/kg/day
rat, strain Sprague-Dawley, males, i.p., site: all sites, lesion: leukemia + lymphoma, dosed 26 weeks, study length 61 weeks
  TD50: 2.1 mg/kg/day
rat, strain Sprague-Dawley, males, i.p., site: all sites, lesion: leukemia, dosed 26 weeks, study length 61 weeks
  TD50: 13.3 mg/kg/day
rat, strain Sprague-Dawley, males, i.p., site: all sites, lesion: lymphoma, dosed 26 weeks, study length 61 weeks
  TD50: 2.51 mg/kg/day
rat, strain Sprague-Dawley, males, i.p., site: any site (literature study), lesion: several types, types named in the paper, dosed 26 weeks, study length 61 weeks
  TD50: 0.186 mg/kg/day
rat, strain Sprague-Dawley, males, i.p., site: brain + olfactory bulb, lesion: carcinoma, NOS + olfactory neuroblastoma + adenocarcinoma, NOS, dosed 26 weeks, study length 61 weeks
  TD50: 0.343 mg/kg/day
rat, strain Sprague-Dawley, males, i.p., site: mammary gland, lesion: adenocarcinoma, NOS + adenoma, NOS, dosed 26 weeks, study length 61 weeks
  TD50: 4.5 mg/kg/day
rat, strain Sprague-Dawley, males, i.p., site: mammary gland, lesion: adenocarcinoma, NOS, dosed 26 weeks, study length 61 weeks
  TD50: 4.85 mg/kg/day
rat, strain Sprague-Dawley, males, i.p., site: olfactory bulb, lesion: adenocarcinoma, NOS, dosed 26 weeks, study length 61 weeks
  TD50: 4.67 mg/kg/day
